Measurements published in ChEMBL document CHEMBL1137691, “Diazinium salts with dihydroxyacetophenone skeleton: Syntheses and antimicrobial activity” (2009).

Tests used:
Assay type in all cases: functional
Staphylococcus aureus = test: Antibacterial activity against Staphylococcus aureus ATCC 25923 at 30 ug/disk after 24 hrs by diffusion technique; details: ATCC 25923, 24 h, read-out: DIZ
[1] = system: Staphylococcus saprophyticus; test: Antibacterial activity against Staphylococcus saprophyticus at 30 ug/disk after 24 hrs by diffusion technique; details: read-out: DIZ
Micrococcus luteus = test: Antibacterial activity against Sarcina lutea ATCC 9341 at 30 ug/disk after 24 hrs by diffusion technique; details: ATCC 9341, 24 h, read-out: DIZ
Bacillus cereus = test: Antibacterial activity against Bacillus cereus at 30 ug/disk after 24 hrs by diffusion technique; details: read-out: DIZ
Bacillus subtilis = test: Antibacterial activity against Bacillus subtilis at 30 ug/disk after 24 hrs by diffusion technique; details: read-out: DIZ
Escherichia coli = test: Antibacterial activity against Escherichia coli ATCC 25922 at 30 ug/disk after 24 hrs by diffusion technique; details: ATCC 25922, 24 h, read-out: DIZ
Pseudomonas aeruginosa = test: Antibacterial activity against Pseudomonas aeruginosa at 30 ug/disk after 24 hrs by diffusion technique; details: read-out: DIZ
Candida albicans = test: Antifungal activity against Candida albicans at 100 ug/disk after 24 hrs by diffusion technique; details: for zone of inhibition at 100 µg/disc: read-out: DIZ

O=C(C[n+]1ccc(O)nc1)c1ccc(O)c(O)c1
zone of inhibition at 30 µg/disc (Staphylococcus aureus): 33 mm
zone of inhibition at 30 µg/disc [1]: 35 mm
zone of inhibition at 30 µg/disc (Micrococcus luteus): 42 mm
zone of inhibition at 30 µg/disc (Bacillus cereus): 32 mm
zone of inhibition at 30 µg/disc (Bacillus subtilis): 38 mm
zone of inhibition at 30 µg/disc (Escherichia coli): 44 mm
zone of inhibition at 30 µg/disc (Pseudomonas aeruginosa): 36 mm
zone of inhibition at 100 µg/disc (Candida albicans): 28 mm

NYSTATIN
inhibition zone (IZ) (Candida albicans): 28 mm

Cc1ccc(-c2ccc[n+](CC(=O)c3ccc(O)c(O)c3)n2)cc1
zone of inhibition at 30 µg/disc (Staphylococcus aureus): 23 mm
zone of inhibition at 30 µg/disc [1]: 40 mm
zone of inhibition at 30 µg/disc (Micrococcus luteus): 41 mm
zone of inhibition at 30 µg/disc (Bacillus cereus): 33 mm
zone of inhibition at 30 µg/disc (Bacillus subtilis): 35 mm
zone of inhibition at 30 µg/disc (Escherichia coli): 40 mm
zone of inhibition at 30 µg/disc (Pseudomonas aeruginosa): 16 mm
zone of inhibition at 100 µg/disc (Candida albicans): 25 mm

Cc1cc[n+](CC(=O)c2ccc(O)c(O)c2)cn1
zone of inhibition at 30 µg/disc (Staphylococcus aureus): 31 mm
zone of inhibition at 30 µg/disc [1]: 35 mm
zone of inhibition at 30 µg/disc (Micrococcus luteus): 40 mm
zone of inhibition at 30 µg/disc (Bacillus cereus): 35 mm
zone of inhibition at 30 µg/disc (Bacillus subtilis): 36 mm
zone of inhibition at 30 µg/disc (Escherichia coli): 41 mm
zone of inhibition at 30 µg/disc (Pseudomonas aeruginosa): 30 mm
zone of inhibition at 100 µg/disc (Candida albicans): 27 mm

O=C(C[n+]1ccccn1)c1ccc(O)c(O)c1
zone of inhibition at 30 µg/disc (Staphylococcus aureus): 17 mm
zone of inhibition at 30 µg/disc [1]: 15 mm
zone of inhibition at 30 µg/disc (Micrococcus luteus): 30 mm
zone of inhibition at 30 µg/disc (Bacillus cereus): 20 mm
zone of inhibition at 30 µg/disc (Bacillus subtilis): 11 mm
zone of inhibition at 30 µg/disc (Escherichia coli): 30 mm
zone of inhibition at 30 µg/disc (Pseudomonas aeruginosa): 20 mm
zone of inhibition at 100 µg/disc (Candida albicans): 0 mm

Cc1ccc[n+](CC(=O)c2ccc(O)c(O)c2)n1
zone of inhibition at 30 µg/disc (Staphylococcus aureus): 26 mm
zone of inhibition at 30 µg/disc [1]: 29 mm
zone of inhibition at 30 µg/disc (Micrococcus luteus): 40 mm
zone of inhibition at 30 µg/disc (Bacillus cereus): 29 mm
zone of inhibition at 30 µg/disc (Bacillus subtilis): 28 mm
zone of inhibition at 30 µg/disc (Escherichia coli): 28 mm
zone of inhibition at 30 µg/disc (Pseudomonas aeruginosa): 18 mm
zone of inhibition at 100 µg/disc (Candida albicans): 15 mm

O=C(C[n+]1cccc(-c2ccc(Br)cc2)n1)c1ccc(O)c(O)c1
zone of inhibition at 30 µg/disc (Staphylococcus aureus): 17 mm
zone of inhibition at 30 µg/disc [1]: 21 mm
zone of inhibition at 30 µg/disc (Micrococcus luteus): 30 mm
zone of inhibition at 30 µg/disc (Bacillus cereus): 9 mm
zone of inhibition at 30 µg/disc (Bacillus subtilis): 16 mm
zone of inhibition at 30 µg/disc (Escherichia coli): 15 mm
zone of inhibition at 30 µg/disc (Pseudomonas aeruginosa): 15 mm
zone of inhibition at 100 µg/disc (Candida albicans): 12 mm

O=C(N[C@H](CO)[C@H](O)c1ccc([N+](=O)[O-])cc1)C(Cl)Cl [CHLORAMPHENICOL]
zone of inhibition at 30 µg/disc (Staphylococcus aureus): 23 mm
zone of inhibition at 30 µg/disc [1]: 23 mm
zone of inhibition at 30 µg/disc (Micrococcus luteus): 38 mm
zone of inhibition at 30 µg/disc (Bacillus cereus): 22 mm
zone of inhibition at 30 µg/disc (Bacillus subtilis): 22 mm
zone of inhibition at 30 µg/disc (Escherichia coli): 22 mm
zone of inhibition at 30 µg/disc (Pseudomonas aeruginosa): 11 mm
